Test results from US20160257697A1, “THIOPHENE-SUBSTITUTED TETRACYCLIC COMPOUNDS AND METHODS OFUSE THEREOF FOR THE TREATMENT OF VIRAL DISEASES” (priority 2013, published 2016).
Read-outs that look alike come from different tables or passages of the source.

Legend:
Assay in all cases: microbe, parasite or virus in culture
Format in all cases: cell-based, Hepatitis C virus (HCV)
HCV replicon 1AQ30D = conditions: Replicon Assay B
HCV replicon 1B = conditions: Replicon Assay B
HCV replicon 1A = conditions: Replicon Assay A
Summary of the method: (§1)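 Three-day treatment of replicon cells (2000/well, 5% FBS, 0.5% DMSO), followed by TaqMan RT-PCR of replicon RNA with cyclophilin as internal control.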

HCV replicon 1AY93H = conditions: Replicon Assay A
Summary of the method: as §1

HCV replicon 2B = conditions: Replicon Assay A
Summary of the method: as §1

[1] = Hepatitis C virus, read-out: 1A Q30D IC50 (nM), replicon 1AQ30D
[2] = Hepatitis C virus, read-out: 1A Y93H IC50 (nM), replicon 1AY93H
[3] = Hepatitis C virus, read-out: 2B IC50 (nM), replicon 2B
[4] = read-out: 1A Q30D IC50, replicon 1AQ30D
[5] = read-out: 1A Y93H IC50, replicon 1AY93H
[6] = Hepatitis C virus, read-out: 1A Q30D IC50, HCV replicon 1A Q30D
[7] = Hepatitis C virus, HCV replicon 1B
[8] = read-out: 1A Y93H IC50, HCV replicon 1A Y93H
[9] = read-out: 2B IC50, HCV replicon 2B
[10] = read-out: 1A Q30D IC50, HCV replicon 1A Q30D

Row | Compound | IC50 (HCV replicon 1AQ30D; [1]) [nM] | IC50 (HCV replicon 1B; Hepatitis C virus, replicon 1B) [pM] | IC50 (HCV replicon 1A; Hepatitis C virus, replicon 1A) [pM] | IC50 (HCV replicon 1AQ30D; [4]) [nM] | IC50 (HCV replicon 1A; replicon 1A) [pM] | IC50 (HCV replicon 1AY93H; [5]) [nM] | IC50 (HCV replicon 2B; read-out: 2B IC50, replicon 2B) [nM] | IC50 (HCV replicon 1AY93H; [8]) [nM] | also measured
1 | COC(=O)N[C@H](C(=O)N1CCC[C@H]1c1ncc(-c2cc(F)c3c(c2)OC(c2ccc(-c4ccc(I)cc4)s2)n2c-3cc3cc(-c4cnc([C@@H]5CCCN5C(=O)[C@@H](NC(=O)OC)C(C)C)[nH]4)ccc32)[nH]1)C(C)C (mixture of isomers) [Compound 313] | 0.19 | 2.9 | 3.2 |  |  |  |  |  | IC50 (HCV replicon 1AY93H; [2]): 0.026 nM; IC50 (HCV replicon 2B; [3]): 0.1 nM
2 | COC(=O)N[C@H](C(=O)N1CCC[C@H]1c1ncc(-c2cc(F)c3c(c2)OC(c2cc(C4CC4)cs2)n2c-3cc3cc(-c4cnc([C@@H]5CCCN5C(=O)[C@@H](NC(=O)OC)C(C)C)[nH]4)ccc32)[nH]1)C(C)C (single isomer, unassigned) [Compound 24] |  |  |  | 14.9 | 2.7 | 1.35 | 2.75 |  | IC50 (HCV replicon 1B; replicon 1B): 3.1 pM
3 | COC(=O)N[C@H](C(=O)N1CCC[C@H]1c1ncc(-c2cc(F)c3c(c2)OC(c2ccc(C4CC4)s2)n2c-3c(F)c3cc(-c4cnc([C@@H]5CCCC5C(=O)[C@@H](NC(=O)OC)C5CCOCC5)[nH]4)ccc32)[nH]1)C(C)C (single isomer, unassigned) [Compound 363] |  |  |  | 0.0439 | 1.5 | 0.0048 | 0.0037 |  | IC50 (HCV replicon 1B; replicon 1B): 2.1 pM
4 | CCc1ccc(C2Oc3cc(-c4cnc([C@@H]5CCCN5C(=O)[C@@H](NC(=O)OC)C(C)C)[nH]4)cc(C)c3-c3cc4cc(-c5cnc([C@@H]6CCCN6C(=O)C(NC(=O)OC)C6C[C@@H](C)O[C@H](C)C6)[nH]5)ccc4n32)s1 (single isomer, unassigned) [Compound 545] |  |  |  |  |  |  |  | 0.024 | IC50 (HCV replicon 1AQ30D; [6]): 0.11 nM; IC50 (HCV replicon 1B; [7]): 5.98 pM; IC50 (HCV replicon 1A; HCV replicon 1A): 3.55 pM; IC50 (HCV replicon 2B; [9]): 0.00645 nM
5 | COC(=O)N[C@H](C(=O)N1CCC[C@H]1c1ncc(-c2cc(F)c3c(c2)OC(c2ccc(CC(F)(F)F)s2)n2c-3cc3cc(-c4cnc([C@@H]5CCCN5C(=O)[C@@H](NC(=O)OC)C(C)C)[nH]4)ccc32)[nH]1)C(C)C (stereo partly drawn) [Compound 125] | 0.29 | 1.3 | 2.3 |  |  |  |  |  | IC50 (HCV replicon 1AY93H; [2]): 0.018 nM; IC50 (HCV replicon 2B; [3]): 0.089 nM
6 | COC(=O)N[C@H](C(=O)N1CCC[C@H]1c1nc(-c2cc(F)c3c(c2)OC(c2ccc(C4CC4)s2)n2c-3cc3cc(-c4cnc([C@@H]5CCCN5C(=O)[C@@H](NC(=O)OC)C5C[C@@H](C)O[C@@H](C)C5)[nH]4)ccc32)c[nH]1)C(C)C (stereo partly drawn) [Compound 190] | 0.013 | 1.4 | 1.1 |  |  |  |  |  | IC50 (HCV replicon 1AY93H; [2]): 0.002 nM; IC50 (HCV replicon 2B; [3]): 0.003 nM
7 | COC(=O)NC(C(=O)N1CCC[C@H]1c1ncc(-c2ccc3c(c2)cc2n3C(c3ccc(C4CC4)s3)Oc3cc(-c4cnc([C@@H]5CCCN5C(=O)[C@@H](NC(=O)OC)C(C)C)[nH]4)cc(F)c3-2)[nH]1)C1CCO[C@H](C)C1 (single isomer, unassigned) [Compound 134] |  |  |  | 0.015 | 2.5 | 0.002 | 0.003 |  | IC50 (HCV replicon 1B; replicon 1B): 2.6 pM
8 | COC(=O)N[C@H](C(=O)N1CCC[C@H]1c1ncc(-c2cc(C)c3c(c2)OC(c2ccc(C4CC4)s2)n2c-3cc3cc(-c4cnc([C@@H]5C[C@H]6C[C@H]6N5C(=O)[C@@H](NC(=O)OC)C(C)C)[nH]4)ccc32)[nH]1)C(C)C (single isomer, unassigned) [Compound 756] |  |  |  |  |  |  |  | 0.64 | IC50 (HCV replicon 1AQ30D; [10]): 10.2 nM; IC50 (HCV replicon 1B; HCV replicon 1B): 2.2 pM; IC50 (HCV replicon 1A; HCV replicon 1A): 3.6 pM; IC50 (HCV replicon 2B; [9]): 0.6 nM
9 | COC(=O)N[C@H](C(=O)N1CCC[C@@H]1c1ncc(-c2cc(F)c3c(c2)OC(c2ccc(C(C)C)s2)n2c-3cc3cc(-c4c[nH]c([C@@H]5CCCN5C(=O)[C@H](NC(=O)OC)C5C[C@@H](C)O[C@@H](C)C5)n4)ccc32)[nH]1)C(C)C (stereo partly drawn) [Compound 234] | 0.05 | 2.8 |  |  | 3.3 |  |  |  | IC50 (HCV replicon 1AY93H; [2]): 0.004 nM; IC50 (HCV replicon 2B; [3]): 0.02 nM
10 | COC(=O)N[C@H](C(=O)N1CCC[C@H]1c1ncc(-c2cc(F)c3c(c2)OC(c2ccc(CC4CC4)s2)n2c-3cc3cc(-c4cnc([C@@H]5CCCN5C(=O)[C@@H](NC(=O)OC)C5CCOCC5)[nH]4)ccc32)[nH]1)C(C)C (single isomer, unassigned) [Compound 357] |  |  |  | 0.0165 | 2.1 | 0.0041 | 0.0026 |  | IC50 (HCV replicon 1B; replicon 1B): 3 pM
11 | COC(=O)NC(C(=O)N1CCC[C@H]1c1ncc(-c2ccc3c(c2)cc2n3C(c3ccc(CC4CC4)s3)Oc3cc(-c4cnc([C@@H]5CCCN5C(=O)[C@@H](NC(=O)OC)C(C)C)[nH]4)cc(F)c3-2)[nH]1)C1CCO[C@H](C)C1 (single isomer, unassigned) [Compound 367] |  | 3.4 | 2.1 | 0.361 |  | 0.0343 | 0.0223 |  | 
12 | COC(=O)N[C@H](C(=O)N1C2CC2C[C@H]1c1ncc(-c2cc(F)c3c(c2)OC(c2ccc(C4CC4)s2)n2c-3cc3cc(-c4cnc([C@@H]5CCCN5C(=O)[C@@H](NC(=O)OC)C5C[C@@H](C)O[C@@H](C)C5)[nH]4)ccc32)[nH]1)C(C)C (single isomer, unassigned) [Compound 557] |  |  |  |  |  |  |  | 0.00464 | IC50 (HCV replicon 1AQ30D; [10]): 0.041 nM; IC50 (HCV replicon 1B; HCV replicon 1B): 2.49 pM; IC50 (HCV replicon 1A; HCV replicon 1A): 3.1 pM; IC50 (HCV replicon 2B; [9]): 0.0151 nM
13 | COC(=O)N[C@H](C(=O)N1CCC[C@H]1c1ncc(-c2cc(F)c3c(c2)OC(c2cc4ccccc4s2)n2c-3cc3cc(-c4cnc([C@@H]5C[C@H]6C[C@H]6N5C(=O)[C@@H](NC(=O)OC)C(C)C)[nH]4)ccc32)[nH]1)C(C)C (single isomer, unassigned) [Compound 616] |  |  |  |  |  |  |  | 0.0205 | IC50 (HCV replicon 1AQ30D; [10]): 0.538 nM; IC50 (HCV replicon 1B; HCV replicon 1B): 2 pM; IC50 (HCV replicon 1A; HCV replicon 1A): 2.9 pM; IC50 (HCV replicon 2B; [9]): 0.266 nM
14 | COC(=O)N[C@H](C(=O)N1CCC[C@@H]1c1ncc(-c2cc(F)c3c(c2)OC(c2ccc(C(C)C)s2)n2c-3cc3cc(-c4c[nH]c([C@@H]5C[C@@H]6C[C@@H]6N5C(=O)[C@H](NC(=O)OC)C5C[C@@H](C)O[C@@H](C)C5)n4)ccc32)[nH]1)C(C)C (stereo partly drawn) [Compound 284] | 0.021 | 2.1 | 1.8 |  |  |  |  |  | IC50 (HCV replicon 1AY93H; [2]): 0.002 nM; IC50 (HCV replicon 2B; [3]): 0.024 nM
15 | COC(=O)N[C@H](C(=O)N1CCC[C@H]1c1nc(-c2cc(F)c3c(c2)OC(c2ccc(C4CC4)s2)n2c-3cc3cc(-c4c[nH]c([C@@H]5C[C@H]6C[C@H]6N5C(=O)[C@@H](NC(=O)OC)C(C)C)n4)ccc32)c[nH]1)C(C)C (single isomer, unassigned) [Compound 721] |  |  |  |  |  |  |  | 0.0045 | IC50 (HCV replicon 1AQ30D; [6]): 0.17 nM; IC50 (HCV replicon 1B; [7]): 1.5 pM; IC50 (HCV replicon 1A; HCV replicon 1A): 1.5 pM; IC50 (HCV replicon 2B; [9]): 0.05 nM
16 | COC(=O)NC(C(=O)N1[C@@H]2C[C@@H]2C[C@H]1c1ncc(-c2ccc3c(c2)cc2n3C(c3cc4c(s3)CCC4)Oc3cc(-c4cnc([C@@H]5CCCN5C(=O)[C@@H](NC(=O)OC)C(C)C)[nH]4)cc(F)c3-2)[nH]1)C(C)C (single isomer, unassigned) [Compound 659] |  |  |  |  |  |  |  | 0.0146 | IC50 (HCV replicon 1AQ30D; [6]): 0.535 nM; IC50 (HCV replicon 1B; [7]): 1.91 pM; IC50 (HCV replicon 1A; Hepatitis C virus, HCV replicon 1A): 3.5 pM; IC50 (HCV replicon 2B; Hepatitis C virus, read-out: 2B IC50, HCV replicon 2B): 0.122 nM
17 | COC(=O)N[C@H](C(=O)N1CCC[C@H]1c1ncc(-c2cc(F)c3c(c2)OC(c2ccc(C4CC4)s2)n2c-3cc3cc(-c4cnc([C@@H]5CCCN5C(=O)[C@@H](NC(=O)OC)C5CCOCC5)[nH]4)ccc32)[nH]1)C1CCOCC1 (single isomer, unassigned) [Compound 280] |  |  |  | 0.005 | 2.1 | 0.003 | 0.003 |  | IC50 (HCV replicon 1B; replicon 1B): 2.6 pM
18 | COC(=O)N[C@H](C(=O)N1CCC[C@H]1c1ncc(-c2cc(F)c3c(c2)OC(c2cc4ccccc4s2)n2c-3cc3cc(-c4cnc([C@@H]5C[C@H]6C[C@H]6N5C(=O)[C@@H](NC(=O)OC)C(C)C)[nH]4)ccc32)[nH]1)C(C)C (single isomer, unassigned) [Compound 615] |  |  |  |  |  |  |  | 0.045 | IC50 (HCV replicon 1AQ30D; [6]): 0.844 nM; IC50 (HCV replicon 1B; [7]): 1.9 pM; IC50 (HCV replicon 1A; HCV replicon 1A): 2.3 pM; IC50 (HCV replicon 2B; [9]): 1.08 nM
19 | CCCc1ccc(C2Oc3cc(-c4cnc([C@@H]5CCCN5C(=O)[C@@H](NC(=O)OC)C(C)C)[nH]4)cc(F)c3-c3cc4cc(-c5cnc([C@@H]6CCCN6C(=O)[C@@H](NC(=O)OC)C6CCOCC6)[nH]5)ccc4n32)s1 (single isomer, unassigned) [Compound 346] |  | 1.3 | 1 | 0.223 |  | 0.0414 | 0.0374 |  | 
20 | CCc1ccc(C2Oc3cc(-c4cnc([C@@H]5CCCN5C(=O)C(NC(=O)OC)C5C[C@@H](C)O[C@@H](C)C5)[nH]4)cc(F)c3-c3cc4cc(-c5cnc([C@@H]6CCCN6C(=O)C(NC(=O)OC)C6C[C@@H](C)O[C@@H](C)C6)[nH]5)ccc4n32)s1 (single isomer, unassigned) [Compound 300] | 0.006 | 3.2 |  |  | 2.4 | 0.002 | 0.003 |  | 
21 | COC(=O)NC(C(=O)N1CCC[C@H]1c1ncc(-c2ccc3c(c2)cc2n3C(c3ccc(C4CC4)s3)Oc3cc(-c4cnc([C@@H]5CCCN5C(=O)[C@@H](NC(=O)OC)C(C)C)[nH]4)cc(F)c3-2)[nH]1)C1CN(C(=O)OC)C1 (single isomer, unassigned) [Compound 226] | 0.13 | 3.6 | 2.6 |  |  | 0.009 | 0.025 |  | 
